Measurements published in patent US8013156B2 (Exelixis, Inc., priority 2003, dated 2011).

Molecular target: Tie-2 (Homo sapiens, UniProt Q02763)
Test: Tie-2 tyrosine kinase activity assay (luciferase/luciferin ATP consumption with pEY substrate, or 33P-ATP incorporation)
Type: biochemical
Details: human enzyme Tie-2
How it was run: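 Values are IC50 categories (A <50 nM to D ≥10,000 nM), with Ki obtainable by fitting rates to a tight-binding model. Assay formats: 33P-ATP phosphate transfer to adsorbed generic substrate counted by scintillation, or luciferase-detected ATP depletion using pEY.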

Tie-2, sequence (Q02763 23-1124): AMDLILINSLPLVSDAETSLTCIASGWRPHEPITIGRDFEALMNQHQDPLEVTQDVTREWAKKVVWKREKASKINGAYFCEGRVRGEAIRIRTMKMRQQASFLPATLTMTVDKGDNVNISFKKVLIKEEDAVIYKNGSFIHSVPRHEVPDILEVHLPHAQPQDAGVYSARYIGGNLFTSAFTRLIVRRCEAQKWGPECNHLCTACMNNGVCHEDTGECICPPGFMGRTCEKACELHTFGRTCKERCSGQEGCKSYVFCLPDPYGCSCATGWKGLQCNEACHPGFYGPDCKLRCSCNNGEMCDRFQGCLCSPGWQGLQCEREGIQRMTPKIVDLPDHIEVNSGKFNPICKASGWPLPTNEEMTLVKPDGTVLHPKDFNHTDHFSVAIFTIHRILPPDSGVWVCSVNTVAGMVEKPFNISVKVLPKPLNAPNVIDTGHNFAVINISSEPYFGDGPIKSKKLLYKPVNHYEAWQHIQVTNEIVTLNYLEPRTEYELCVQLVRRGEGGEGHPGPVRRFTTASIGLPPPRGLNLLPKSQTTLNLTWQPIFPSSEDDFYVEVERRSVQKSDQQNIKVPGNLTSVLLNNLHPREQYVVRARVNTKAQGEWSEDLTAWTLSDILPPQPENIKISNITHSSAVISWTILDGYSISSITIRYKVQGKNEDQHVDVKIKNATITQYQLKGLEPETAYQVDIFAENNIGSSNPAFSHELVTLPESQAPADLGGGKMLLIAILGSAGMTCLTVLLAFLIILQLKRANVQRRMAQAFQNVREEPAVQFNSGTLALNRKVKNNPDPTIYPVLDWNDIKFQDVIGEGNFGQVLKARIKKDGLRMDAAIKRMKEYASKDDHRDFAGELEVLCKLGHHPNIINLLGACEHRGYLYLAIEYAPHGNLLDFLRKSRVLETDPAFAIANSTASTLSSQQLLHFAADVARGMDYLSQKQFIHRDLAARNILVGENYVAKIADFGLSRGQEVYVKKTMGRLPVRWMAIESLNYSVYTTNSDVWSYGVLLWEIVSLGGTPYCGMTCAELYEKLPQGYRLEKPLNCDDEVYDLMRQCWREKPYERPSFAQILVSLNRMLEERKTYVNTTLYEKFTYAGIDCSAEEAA

SMILES	IC50 [nM]
O=C(Nc1cccc(C(F)(F)F)c1)NC1CCN(c2nccnc2OCc2ccncc2)C1 (stereo not shown) [Example 66, N-(1-{3-[(pyridin-4-ylmethyl)oxy]pyrazin-2-yl}pyrrolidin-3-yl)-N′-[3-(trifluoromethyl)phenyl]urea]	50 to 1000
CC1CN(C(=O)Nc2cccc(C(F)(F)F)c2)CCN1c1nccnc1OCc1ccncc1 (stereo not shown) [Example 71, 3-methyl-4-{3-[(pyridin-4-ylmethyl)oxy]pyrazin-2-yl}-N-[3-(trifluoromethyl)phenyl]piperazine-1-carboxamide]	50 to 1000
CSc1cccc(NC(=O)N2CCN(c3nsnc3OCc3ccnc(N)n3)CC2)c1 [Example 266, 4-(4-{[(2-aminopyrimidin-4-yl)methyl]oxy}-1,2,5-thiadiazol-3-yl)-N-[3-(methylthio)phenyl]piperazine-1-carboxamide]	50 to 1000
Nc1cc(COc2nsnc2N2CCN(C(=O)Nc3cccc4ccccc34)CC2)ccn1 [Example 149, 4-(4-{[(2-aminopyridin-4-yl)methyl]oxy}-1,2,5-thiadiazol-3-yl)-N-naphthalen-1-ylpiperazine-1-carboxamide]	≥ 10000
Nc1nccc(COc2cccnc2N2CCN(C(=O)NC3CCCCC3)CC2)n1 [Example 206, 4-(3-{[(2-aminopyrimidin-4-yl)methyl]oxy}pyridin-2-yl)-N-cyclohexylpiperazine-1-carboxamide]	1000 to 10000
CN1CCN(CC(=O)Nc2cc(COc3nsnc3N3CCN(C(=O)Nc4cc(C(F)(F)F)cc(C(F)(F)F)c4)CC3)ccn2)CC1 [Example 155, N-[3,5-bis(trifluoromethyl)phenyl]-4-(4-{[(2-{[(4-methylpiperazin-1-yl)acetyl]amino}pyridin-4-yl)methyl]oxy}-1,2,5-thiadiazol-3-yl)piperazine-1-carboxamide]	< 50
CCc1cccc(NC(=O)N2CCN(c3nsnc3OCc3ccncc3)CC2)c1 [Example 7]	50 to 1000
O=C(Nc1cc(C(F)(F)F)cc(C(F)(F)F)c1)N1CCCN(c2nsnc2OCc2ccncc2)CC1 [Example 23]	50 to 1000
O=C(Nc1cc(COc2nsnc2N2CCN(C(=O)Nc3cc(C(F)(F)F)cc(C(F)(F)F)c3)CC2)ccn1)OCCN1CCCC1 [Example 140, 2-pyrrolidin-1-ylethyl {4-[({4-[4-({[3,5-bis(trifluoromethyl)phenyl]amino}carbonyl)piperazin-1-yl]-1,2,5-thiadiazol-3-yl}oxy)methyl]pyridin-2-yl}carbamate]	< 50
CCc1ccc(F)c(NC(=O)N2CCN(c3ncccc3OCc3ccnc(N)n3)CC2)c1 [Example 180, 4-(3-{[(2-aminopyrimidin-4-yl)methyl]oxy}pyridin-2-yl)-N-(5-ethyl-2-fluorophenyl)piperazine-1-carboxamide]	< 50
Nc1nccc(COc2nsnc2N2CCN(C(=O)Nc3ccc(F)c(Cl)c3)CC2)n1 [Example 253, 4-(4-{[(2-aminopyrimidin-4-yl)methyl]oxy}-1,2,5-thiadiazol-3-yl)-N-(3-chloro-4-fluorophenyl)piperazine-1-carboxamide]	1000 to 10000
COC(=O)Nc1cc(COc2nsnc2N2CCN(C(=O)Nc3cc(C(F)(F)F)cc(C(F)(F)F)c3)CC2)ccn1 [Example 101, methyl {4-[({4-[4-({[3,5-bis(trifluoromethyl)phenyl]amino}carbonyl)piperazin-1-yl]-1,2,5-thiadiazol-3-yl}oxy)methyl]pyridin-2-yl}carbamate]	< 50
O=C(NCC1CCN(c2nsnc2OCc2ccncc2)CC1)Nc1cc(C(F)(F)F)cc(C(F)(F)F)c1 [Example 28]	50 to 1000
CCOc1ccccc1NC(=O)N1CCN(c2nsnc2OCc2ccnc(N)n2)CC1 [Example 264, 4-(4-{[(2-aminopyrimidin-4-yl)methyl]oxy}-1,2,5-thiadiazol-3-yl)-N-[2-(ethyloxy)phenyl]piperazine-1-carboxamide]	≥ 10000
Nc1nccc(COc2nsnc2N2CCN(C(=O)Nc3cc(C(F)(F)F)ccc3Cl)CC2)n1 [Example 262, 4-(4-{[(2-aminopyrimidin-4-yl)methyl]oxy}-1,2,5-thiadiazol-3-yl)-N-[2-chloro-5-(trifluoromethyl)phenyl]piperazine-1-carboxamide]	50 to 1000
CCc1cc(Cl)cc(NC(=O)N2CCN(c3ncccc3OCc3ccnc(N)n3)CC2)c1 [Example 179, 4-(3-{[(2-aminopyrimidin-4-yl)methyl]oxy}pyridin-2-yl)-N-(3-chloro-5-ethylphenyl)piperazine-1-carboxamide]	< 50
O=C(Nc1cc(COc2nsnc2N2CCN(C(=O)Nc3cc(C(F)(F)F)cc(C(F)(F)F)c3)CC2)ccn1)OCCN1CCOCC1 [Example 141, 2-morpholin-4-ylethyl {4-[({4-[4-({[3,5-bis(trifluoromethyl)phenyl]amino}carbonyl)piperazin-1-yl]-1,2,5-thiadiazol-3-yl}oxy)methyl]pyridin-2-yl}carbamate]	< 50
CC(=O)N1CCN(c2ncccc2OCc2ccnc(N)n2)CC1 [Example 207, 4-({[2-(4-acetylpiperazin-1-yl)pyridin-3-yl]oxy}methyl)pyrimidin-2-amine]	≥ 10000
O=C(Nc1cc(C(F)(F)F)cc(C(F)(F)F)c1)N1CCN(c2nsnc2OCCN2CCOCC2)CC1 [Example 14]	≥ 10000
CCc1cc(NC(=O)N2CCN(c3nccnc3OCc3ccnc(N)n3)CC2)ccc1F [Example 241, 4-(3-{[(2-aminopyrimidin-4-yl)methyl]oxy}pyrazin-2-yl)-N-(3-ethyl-4-fluorophenyl)piperazine-1-carboxamide]	< 50
O=C(Nc1cc(COc2nsnc2N2CCN(C(=O)Nc3cc(C(F)(F)F)cc(C(F)(F)F)c3)CC2)ccn1)c1ccccc1 [Example 125, N-[3,5-bis(trifluoromethyl)phenyl]-4-{4-[({2-[(phenylcarbonyl)amino]pyridin-4-yl}methyl)oxy]-1,2,5-thiadiazol-3-yl}piperazine-1-carboxamide]	1000 to 10000

The next lines start with the values.

IC50 [nM]	SMILES
< 50	Cc1ccc(OCc2ccnc(N)n2)c(N2CCN(C(=O)Nc3cc(C(F)(F)F)cc(C(F)(F)F)c3)CC2)n1 [Example 228, 4-(3-{[(2-aminopyrimidin-4-yl)methyl]oxy}-6-methylpyridin-2-yl)-N-[3,5-bis(trifluoromethyl)phenyl]piperazine-1-carboxamide]
< 50	NC(=O)c1cnc(OCc2ccnc(N)n2)c(N2CCN(C(=O)Nc3cc(C(F)(F)F)cc(C(F)(F)F)c3)CC2)n1 [Example 275, 5-{[(2-aminopyrimidin-4-yl)methyl]oxy}-6-[4-({[3,5-bis(trifluoromethyl)phenyl]amino}carbonyl)piperazin-1-yl]pyrazine-2-carboxamide]
< 50	Nc1nccc(COc2cccnc2N2CCN(C(=O)Nc3cc(Cl)cc(C(F)(F)F)c3)CC2)n1 [Example 235, 4-(3-{[(2-aminopyrimidin-4-yl)methyl]oxy}pyridin-2-yl)-N-[3-chloro-5-(trifluoromethyl)phenyl]piperazine-1-carboxamide]
< 50	Nc1nccc(COc2ccccc2N2CCN(C(=O)Nc3cc(F)cc(C(F)(F)F)c3)CC2)n1 [Example 272, 4-(2-{[(2-aminopyrimidin-4-yl)methyl]oxy}phenyl)-N-[3-fluoro-5-(trifluoromethyl)phenyl]piperazine-1-carboxamide]
< 50	CCc1cc(NC(=O)N2CCN(c3ccccc3OCc3ccnc(N)n3)CC2)cc(C(F)(F)F)c1 [Example 277, 4-(2-{[(2-aminopyrimidin-4-yl)methyl]oxy}phenyl)-N-[3-ethyl-5-(trifluoromethyl)phenyl]piperazine-1-carboxamide]
< 50	CC(=O)Nc1cc(COc2nsnc2N2CCN(C(=O)Nc3cc(C(F)(F)F)cc(C(F)(F)F)c3)CC2)ccn1 [Example 129, 4-[4-({[2-(acetylamino)pyridin-4-yl]methyl}oxy)-1,2,5-thiadiazol-3-yl]-N-[3,5-bis(trifluoromethyl)phenyl]piperazine-1-carboxamide]
< 50	Nc1nccc(COc2cccnc2N2CCN(C(=O)Nc3cc(C(F)(F)F)ccc3F)CC2)n1 [Example 169, 4-(3-{[(2-aminopyrimidin-4-yl)methyl]oxy}pyridin-2-yl)-N-[2-fluoro-5-(trifluoromethyl)phenyl]piperazine-1-carboxamide]
< 50	CCOC(=O)Nc1cc(COc2nsnc2N2CCN(C(=O)Nc3cc(C(F)(F)F)cc(C(F)(F)F)c3)CC2)ccn1 [Example 153, ethyl {4-[({4-[4-({[3,5-bis(trifluoromethyl)phenyl]amino}carbonyl)piperazin-1-yl]-1,2,5-thiadiazol-3-yl}oxy)methyl]pyridin-2-yl}carbamate]
< 50	Nc1nccc(COc2nccnc2N2CCN(C(=O)Nc3cc(Cl)cc(C(F)(F)F)c3)CC2)n1 [Example 234, 4-(3-{[(2-aminopyrimidin-4-yl)methyl]oxy}pyrazin-2-yl)-N-[3-chloro-5-(trifluoromethyl)phenyl]piperazine-1-carboxamide]
50 to 1000	Nc1nccc(COc2nsnc2N2CCN(C(=O)Cc3cc(C(F)(F)F)cc(C(F)(F)F)c3)CC2)n1 [Example 274, 4-({[4-(4-{[3,5-bis(trifluoromethyl)phenyl]acetyl}piperazin-1-yl)-1,2,5-thiadiazol-3-yl]oxy}methyl)pyrimidin-2-amine]
< 50	Nc1nccc(COc2nccnc2N2CCN(C(=O)Nc3cc(F)cc(C(F)(F)F)c3)CC2)n1 [Example 218, 4-(3-{[(2-aminopyrimidin-4-yl)methyl]oxy}pyrazin-2-yl)-N-[3-fluoro-5-(trifluoromethyl)phenyl]piperazine-1-carboxamide]
< 50	Nc1nccc(COc2nsnc2N2CCN(C(=O)Nc3cccc(C(F)(F)F)c3)CC2)n1 [Example 231, 4-(4-{[(2-aminopyrimidin-4-yl)methyl]oxy}-1,2,5-thiadiazol-3-yl)-N-[3-(trifluoromethyl)phenyl]piperazine-1-carboxamide]
< 50	Nc1nccc(COc2nsnc2N2CCN(C(=O)Nc3cc(Cl)cc(C(F)(F)F)c3)CC2)n1 [Example 240, 4-(4-{[(2-aminopyrimidin-4-yl)methyl]oxy}-1,2,5-thiadiazol-3-yl)-N-[3-chloro-5-(trifluoromethyl)phenyl]piperazine-1-carboxamide]
